The values below are quoted from earlier work in patent US20220090193A1, “ATTACHING NUCLEOTIDES TO A POLYNUCLEOTIDE WITH A POLYMERASE” (priority 2019, published 2022).

For this data set the following is noted: amino acid side chain.

As to `NCCCC[C@H](N)C(=O)O` [Lysine], the pKa is 10.54.
